pIC50: −log10 of the molar value.
Experiments:
Assay in all cases: Kinase selectivity panel
Format in all cases: biochemical
Conditions in all cases: [ATP] = 1 mM
MINK = MINK (Homo sapiens, UniProt Q8N4C8)
SGK2 = SGK2 (Homo sapiens, UniProt Q9HBY8)
DYRK2 = DYRK2 (Homo sapiens, UniProt Q92630)

Measured: pIC50

DYRK2, sequence (Q92630 whole entry): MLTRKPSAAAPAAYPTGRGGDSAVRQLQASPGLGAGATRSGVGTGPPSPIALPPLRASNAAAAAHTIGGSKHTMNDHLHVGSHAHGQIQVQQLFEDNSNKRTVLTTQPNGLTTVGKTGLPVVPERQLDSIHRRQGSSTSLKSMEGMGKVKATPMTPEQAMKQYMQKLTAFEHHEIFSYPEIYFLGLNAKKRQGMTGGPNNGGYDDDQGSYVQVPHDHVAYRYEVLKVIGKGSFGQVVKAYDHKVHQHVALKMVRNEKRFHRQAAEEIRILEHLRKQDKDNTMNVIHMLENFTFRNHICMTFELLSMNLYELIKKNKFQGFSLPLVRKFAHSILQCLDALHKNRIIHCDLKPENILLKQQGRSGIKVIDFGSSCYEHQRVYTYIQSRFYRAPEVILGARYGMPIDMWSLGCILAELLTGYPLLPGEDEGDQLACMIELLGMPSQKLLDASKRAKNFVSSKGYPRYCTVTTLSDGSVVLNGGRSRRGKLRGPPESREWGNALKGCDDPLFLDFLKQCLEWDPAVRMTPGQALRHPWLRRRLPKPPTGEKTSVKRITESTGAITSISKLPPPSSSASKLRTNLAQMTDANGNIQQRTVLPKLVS
MINK, sequence (Q8N4C8 whole entry): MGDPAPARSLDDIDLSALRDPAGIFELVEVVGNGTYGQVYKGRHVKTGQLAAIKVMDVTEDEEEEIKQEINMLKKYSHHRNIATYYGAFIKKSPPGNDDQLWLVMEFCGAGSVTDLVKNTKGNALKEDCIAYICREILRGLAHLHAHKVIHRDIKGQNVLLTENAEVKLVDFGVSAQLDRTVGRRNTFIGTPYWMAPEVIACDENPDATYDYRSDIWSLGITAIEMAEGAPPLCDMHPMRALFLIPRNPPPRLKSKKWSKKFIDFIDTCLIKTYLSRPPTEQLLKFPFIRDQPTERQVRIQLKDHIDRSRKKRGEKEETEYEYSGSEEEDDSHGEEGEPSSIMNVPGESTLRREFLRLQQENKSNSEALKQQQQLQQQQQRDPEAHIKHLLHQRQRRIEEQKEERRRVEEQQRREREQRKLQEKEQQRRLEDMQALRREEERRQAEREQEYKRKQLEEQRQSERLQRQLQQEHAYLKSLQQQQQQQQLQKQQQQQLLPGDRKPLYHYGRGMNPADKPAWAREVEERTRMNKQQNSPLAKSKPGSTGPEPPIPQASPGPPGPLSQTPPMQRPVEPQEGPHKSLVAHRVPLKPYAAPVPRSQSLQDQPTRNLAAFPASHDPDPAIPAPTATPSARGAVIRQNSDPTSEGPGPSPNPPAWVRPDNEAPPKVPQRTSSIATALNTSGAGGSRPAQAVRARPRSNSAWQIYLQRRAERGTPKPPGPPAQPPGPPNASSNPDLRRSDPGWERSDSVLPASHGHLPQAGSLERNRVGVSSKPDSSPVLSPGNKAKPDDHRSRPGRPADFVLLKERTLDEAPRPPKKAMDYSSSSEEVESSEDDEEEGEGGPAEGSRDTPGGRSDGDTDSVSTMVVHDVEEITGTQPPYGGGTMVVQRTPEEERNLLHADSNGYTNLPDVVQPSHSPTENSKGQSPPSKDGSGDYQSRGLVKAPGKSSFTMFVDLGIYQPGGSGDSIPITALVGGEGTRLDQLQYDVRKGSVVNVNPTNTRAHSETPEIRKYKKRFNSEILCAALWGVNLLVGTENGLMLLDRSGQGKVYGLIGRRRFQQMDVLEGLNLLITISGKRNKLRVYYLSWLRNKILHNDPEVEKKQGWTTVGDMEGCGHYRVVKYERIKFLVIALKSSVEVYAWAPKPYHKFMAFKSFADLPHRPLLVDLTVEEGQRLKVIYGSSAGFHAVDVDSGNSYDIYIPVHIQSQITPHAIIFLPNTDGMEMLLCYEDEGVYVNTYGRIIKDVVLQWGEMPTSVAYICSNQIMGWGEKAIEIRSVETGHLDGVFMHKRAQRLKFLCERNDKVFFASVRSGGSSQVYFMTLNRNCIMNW
SGK2, sequence (Q9HBY8 whole entry, species assumed): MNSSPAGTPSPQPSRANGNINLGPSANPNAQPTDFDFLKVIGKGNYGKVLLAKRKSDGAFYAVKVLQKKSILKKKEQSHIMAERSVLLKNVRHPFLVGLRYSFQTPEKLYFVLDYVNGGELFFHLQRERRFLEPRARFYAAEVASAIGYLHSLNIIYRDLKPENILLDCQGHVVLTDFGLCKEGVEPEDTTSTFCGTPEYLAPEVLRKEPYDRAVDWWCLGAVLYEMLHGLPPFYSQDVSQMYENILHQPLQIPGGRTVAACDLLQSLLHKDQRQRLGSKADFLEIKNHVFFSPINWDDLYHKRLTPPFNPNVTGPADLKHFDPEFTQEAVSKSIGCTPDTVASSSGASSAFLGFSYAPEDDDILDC

C[C@H]1CN(c2c(NC(=O)c3ccc(F)c(-c4c(F)cccc4F)n3)cnc3c2CC[C@H]3O)C[C@@H](N)[C@@H]1O.O=P(O)(O)O [INCB053914, N-((R)-4-((3R,4R,5S)-3-amino-4-hydroxy-5-methylpiperidin-1-yl)-7-hydroxy-6,7-dihydro-5H-cyclopenta[b]pyridin-3-yl)-6-(2,6-difluorophenyl)-5-fluoropicolinamide phosphate]
< 4.70: all assays above

— article PMC6013247, “Preclinical characterization of INCB053914, a novel pan-PIM kinase inhibitor, alone and in combination with anticancer agents, in models of hematologic malignancies” (PLoS ONE, 2018)
